Where no end group is shown, it is not given here.
Test system: SLK tumor endothelial cells
Experiment: Flow cytometry analysis of micelle uptake
Format: cell-based
Details: SLK cells pre-incubated with free blocking peptide at 9 mM, then co-incubated with micelles
Method: SLK cells were seeded at 125,000 cells/well in 6-well plates in 2 mL DMEM with 10% FBS. After 24 h, 1 mg of micelles (from 3.3 mg/ml micelle suspension) for each micelle formulation with different cRGD density (0, 5, 16, 76% cRGD) was added into each well and incubated at 37° C. for 2 h. Then, cells were washed, trypsinized and neutralized. After centrifugation at 1200 rpm for 5 min, cells were re-suspended in 1 mL PBS, followed by filtration and analysis using flow cytometry. […] In the control experiment, SLK cells were first incubated with a free blocking peptide, Ala-Ala-Arg-Gly-Asp-Tyr (AARGDY) (SEQ ID NO: 757), and then co-incubated with 76% cRGD-functionalized micelles.

AARGDY was tested, and the “inhibition of uptake of 76% cRGD-functionalized micelles” value was roughly 100%.

Reference: patent US8697031B2, “Dual function polymer micelles” (Case Western Reserve University, priority 2004, dated 2014)
